Results from PMC5218480 (PLoS ONE, 2017).

Tested on: MV-4-11 cells
Experiment: Gene expression microarray analysis (Affymetrix PrimeView) and GSEA
Type: cell-based, human
Design: RFU PODN (11730768_x_at) / Fold change /veh PODN (11730768_x_at) / RFU LINC00158 (11744669_a_at) / Fold change /veh LINC00158 (11744669_a_at) / RFU DUSP10 (11751237_a_at) / Fold change /veh DUSP10 (11751237_a_at) / RFU ID3 (11757404_x_at) / Fold change /veh ID3 (11757404_x_at) / RFU PLEKHG5 (11737974_s_at) / Fold change /veh PLEKHG5 (11737974_s_at) / RFU LRRC4B (11730491_at) / Fold change /veh LRRC4B (11730491_at) / RFU GIMAP4 (11747438_a_at) / Fold change /veh GIMAP4 (11747438_a_at) / RFU KRT8 (11758183_x_at) / Fold change /veh KRT8 (11758183_x_at) / RFU CNN1 (11734310_a_at) / Fold change /veh CNN1 (11734310_a_at) / RFU VPS37D (11726825_at) / Fold change /veh VPS37D (11726825_at) / RFU C10orf10 (11716522_x_at) / Fold change /veh C10orf10 (11716522_x_at) / RFU KIR2DL2 /// KIR2DL4 /// KIR2DL5A /// KIR2DL5B /// KIR2DS1 /// KIR2DS2 /// KIR2DS3 /// KIR2DS4 /// KIR3DL3 /// KIR3DL3 /// KIR3DS1 (11738374_at) / Fold change /veh KIR2DL2 /// KIR2DL4 /// KIR2DL5A /// KIR2DL5B /// KIR2DS1 /// KIR2DS2 /// KIR2DS3 /// KIR2DS4 /// KIR3DL3 /// KIR3DL3 /// KIR3DS1 (11738374_at) / RFU C1QL1 (11718748_at) / Fold change /veh C1QL1 (11718748_at) / RFU TMPRSS4 (11747572_a_at) / Fold change /veh TMPRSS4 (11747572_a_at) / RFU HAMP (11756126_x_at) / Fold change /veh HAMP (11756126_x_at) / RFU RNFT2 (11725882_a_at) / Fold change /veh RNFT2 (11725882_a_at) / RFU NR4A2 (11747474_a_at) / Fold change /veh NR4A2 (11747474_a_at) / RFU ABCC12 (11746883_a_at) / Fold change /veh ABCC12 (11746883_a_at) / RFU TMEM136 (11760407_x_at) / Fold change /veh TMEM136 (11760407_x_at) / RFU CLDN22 /// WWC2 (11732394_at) / Fold change /veh CLDN22 /// WWC2 (11732394_at) / RFU HLA-DPB1 (11760878_x_at) / Fold change /veh HLA-DPB1 (11760878_x_at) / RFU SPINT1 (11716480_a_at) / Fold change /veh SPINT1 (11716480_a_at) / RFU GAP43 (11754022_s_at) / Fold change /veh GAP43 (11754022_s_at) / RFU A4GNT (11735810_at) / Fold change /veh A4GNT (11735810_at) / RFU PRB3 (11715151_x_at) / Fold change /veh PRB3 (11715151_x_at) / RFU TUBB4B (11761932_at) / Fold change /veh TUBB4B (11761932_at) / RFU CAPN14 (11732068_a_at) / Fold change /veh CAPN14 (11732068_a_at) / RFU TMCC2 (11721928_a_at) / Fold change /veh TMCC2 (11721928_a_at) / RFU IRGQ (11745062_a_at) / Fold change /veh IRGQ (11745062_a_at) / RFU FAM174B (11720279_a_at) / Fold change /veh FAM174B (11720279_a_at) / RFU TMPRSS4 (11748680_a_at) / Fold change /veh TMPRSS4 (11748680_a_at) / RFU FAM212B (11763350_a_at) / Fold change /veh FAM212B (11763350_a_at) / RFU PLEKHG5 (11743358_a_at) / Fold change /veh PLEKHG5 (11743358_a_at) / RFU ZSCAN30 (11745921_a_at) / Fold change /veh ZSCAN30 (11745921_a_at) / RFU CMKLR1 (11741424_a_at) / Fold change /veh CMKLR1 (11741424_a_at) / RFU LOC101060620 /// MAPK8IP1 (11723275_at) / Fold change /veh LOC101060620 /// MAPK8IP1 (11723275_at) / RFU SPTSSB (11747773_x_at) / Fold change /veh SPTSSB (11747773_x_at) / RFU PRSS12 (11739890_at) / Fold change /veh PRSS12 (11739890_at) / RFU BIN1 (11741810_x_at) / Fold change /veh BIN1 (11741810_x_at) / RFU WNT11 (11732464_a_at) / Fold change /veh WNT11 (11732464_a_at) / RFU C10orf10 (11716521_a_at) / Fold change /veh C10orf10 (11716521_a_at) / RFU C5orf56 (11738089_at) / Fold change /veh C5orf56 (11738089_at) / RFU CYB561 (11721691_x_at) / Fold change /veh CYB561 (11721691_x_at) / RFU ANKRD19P (11752326_a_at) / Fold change /veh ANKRD19P (11752326_a_at) / RFU OR2T12 /// OR2T33 /// OR2T8 (11738714_s_at) / Fold change /veh OR2T12 /// OR2T33 /// OR2T8 (11738714_s_at) / RFU VCAN (11748164_a_at) / Fold change /veh VCAN (11748164_a_at) / RFU JSRP1 (11732532_at) / Fold change /veh JSRP1 (11732532_at) / RFU KRTAP10-11 (11738290_x_at) / Fold change /veh KRTAP10-11 (11738290_x_at) / RFU MYO3A (11730013_a_at) / Fold change /veh MYO3A (11730013_a_at) / RFU EBF3 (11725865_a_at) / Fold change /veh EBF3 (11725865_a_at) / RFU CAMK2N1 (11719241_x_at) / Fold change /veh CAMK2N1 (11719241_x_at) / RFU C5orf56 (11738088_a_at) / Fold change /veh C5orf56 (11738088_a_at) / RFU OLFML3 (11715873_a_at) / Fold change /veh OLFML3 (11715873_a_at) / RFU LOC100653217 /// NTM (11731650_a_at) / Fold change /veh LOC100653217 /// NTM (11731650_a_at) / RFU MAPK11 (11762145_a_at) / Fold change /veh MAPK11 (11762145_a_at) / RFU FIZ1 (11724087_x_at) / Fold change /veh FIZ1 (11724087_x_at) / RFU OASL (11726364_x_at) / Fold change /veh OASL (11726364_x_at) / RFU SOX15 (11748057_x_at) / Fold change /veh SOX15 (11748057_x_at) / RFU CD79A (11719716_a_at) / Fold change /veh CD79A (11719716_a_at) / RFU HIST1H1D (11736915_at) / Fold change /veh HIST1H1D (11736915_at) / RFU CASKIN2 (11723855_a_at) / Fold change /veh CASKIN2 (11723855_a_at) / RFU LOC730098 (11760151_x_at) / Fold change /veh LOC730098 (11760151_x_at) / RFU OR4N2 (11742367_at) / Fold change /veh OR4N2 (11742367_at) / RFU PRRT2 (11749266_a_at) / Fold change /veh PRRT2 (11749266_a_at) / RFU SNX32 (11753110_a_at) / Fold change /veh SNX32 (11753110_a_at) / RFU CDHR5 (11726645_a_at) / Fold change /veh CDHR5 (11726645_a_at) / RFU RCAN1 (11760418_a_at) / Fold change /veh RCAN1 (11760418_a_at) / RFU FAM167A (11723789_a_at) / Fold change /veh FAM167A (11723789_a_at) / RFU FAM26E (11764081_at) / Fold change /veh FAM26E (11764081_at) / RFU ISYNA1 (11749810_s_at) / Fold change /veh ISYNA1 (11749810_s_at) / RFU ACY1 (11761880_at) / Fold change /veh ACY1 (11761880_at) / RFU 11764098_at / Fold change /veh 11764098_at / RFU SAMD14 (11745864_x_at) / Fold change /veh SAMD14 (11745864_x_at) / RFU NPB (11741838_a_at) / Fold change /veh NPB (11741838_a_at) / RFU TMPRSS6 (11731388_a_at) / Fold change /veh TMPRSS6 (11731388_a_at) / RFU KRTAP10-2 (11738614_at) / Fold change /veh KRTAP10-2 (11738614_at) / RFU ARHGAP8 /// PRR5-ARHGAP8 (11727945_x_at) / Fold change /veh ARHGAP8 /// PRR5-ARHGAP8 (11727945_x_at) / RFU KRTAP5-7 /// NADSYN1 (11734609_at) / Fold change /veh KRTAP5-7 /// NADSYN1 (11734609_at) / RFU RASL12 (11751679_a_at) / Fold change /veh RASL12 (11751679_a_at) / RFU CDKN2B (11736163_a_at) / Fold change /veh CDKN2B (11736163_a_at) / RFU PRF1 (11729649_at) / Fold change /veh PRF1 (11729649_at) / RFU, ZNF638 /// ZNF638-IT1 / Fold change vs veh, ZNF638 /// ZNF638-IT1 / RFU, PANK3 / Fold change vs veh, PANK3 / RFU, SH3YL1 / Fold change vs veh, SH3YL1 / RFU, ZEB2 / Fold change vs veh, ZEB2 / RFU, NRIP1 / Fold change vs veh, NRIP1 / RFU, PTTG1IP / Fold change vs veh, PTTG1IP / RFU, CAPN2 / Fold change vs veh, CAPN2 / RFU, MED14 / Fold change vs veh, MED14 / RFU, SNORA58 / Fold change vs veh, SNORA58 / RFU, C1orf63 / Fold change vs veh, C1orf63 / RFU, LRRFIP1 / Fold change vs veh, LRRFIP1 / RFU, NDUFAF7 / Fold change vs veh, NDUFAF7 / RFU, SLC12A2 / Fold change vs veh, SLC12A2 / RFU, IBTK / Fold change vs veh, IBTK / RFU, ESF1 / Fold change vs veh, ESF1 / Fold change vs veh, TMEM50B / RFU, TAOK1 / Fold change vs veh, TAOK1 / RFU, ACBD3 / Fold change vs veh, ACBD3 / RFU, TMA16 / Fold change vs veh, TMA16 / RFU, RWDD3 / Fold change vs veh, RWDD3 / RFU, BCAT1 / Fold change vs veh, BCAT1 / RFU, EDEM3 / Fold change vs veh, EDEM3 / RFU, TMEM33 / Fold change vs veh, TMEM33 / RFU, WDR75 / Fold change vs veh, WDR75 / RFU, AHCTF1 / Fold change vs veh, AHCTF1 / RFU, TFRC / Fold change vs veh, TFRC / RFU, ZDHHC17 / Fold change vs veh, ZDHHC17 / RFU, NOM1 / Fold change vs veh, NOM1 / RFU, ARL8B / Fold change vs veh, ARL8B / RFU, ZBTB11 / Fold change vs veh, ZBTB11 / RFU, TAMM41 / Fold change vs veh, TAMM41 / RFU, KIAA1704 /// LOC100996395 / Fold change vs veh, KIAA1704 /// LOC100996395 / RFU, ING1 / Fold change vs veh, ING1 / RFU, TRMT61B / Fold change vs veh, TRMT61B / RFU, FUBP3 / Fold change vs veh, FUBP3 / RFU, TP53 / Fold change vs veh, TP53 / RFU, TNKS2 / Fold change vs veh, TNKS2 / RFU, ZFP14 / Fold change vs veh, ZFP14 / RFU, ACTR2 / Fold change vs veh, ACTR2 / RFU, PPP3R1 / Fold change vs veh, PPP3R1 / RFU, PIK3R1 / Fold change vs veh, PIK3R1 / RFU, HNRNPA1 / Fold change vs veh, HNRNPA1 / RFU, RNF170 / Fold change vs veh, RNF170 / RFU, ZNF28 / Fold change vs veh, ZNF28 / RFU, RNGTT / Fold change vs veh, RNGTT / RFU, OGT / Fold change vs veh, OGT / RFU, BRD1 / Fold change vs veh, BRD1 / RFU, MARS / Fold change vs veh, MARS / RFU, ZNF655 / Fold change vs veh, ZNF655 / RFU, FAHD1 / Fold change vs veh, FAHD1 / RFU, BDP1 / Fold change vs veh, BDP1 / RFU, LRRCC1 / Fold change vs veh, LRRCC1 / RFU, ARID1A / Fold change vs veh, ARID1A / RFU, ZNF146 / Fold change vs veh, ZNF146 / RFU, ZNF330 / Fold change vs veh, ZNF330 / RFU, GPN3 / Fold change vs veh, GPN3 / RFU, C9orf123 / Fold change vs veh, C9orf123 / RFU, N4BP2L2 / Fold change vs veh, N4BP2L2 / RFU, ARFIP1 / Fold change vs veh, ARFIP1 / RFU, FAM179B / Fold change vs veh, FAM179B / RFU, BCL10 / Fold change vs veh, BCL10 / RFU, UHRF1BP1L / Fold change vs veh, UHRF1BP1L / RFU, BET1 / Fold change vs veh, BET1 / RFU, CNOT2 / Fold change vs veh, CNOT2 / RFU, ZNF268 / Fold change vs veh, ZNF268 / Fold change vs veh, ZNF507 / RFU, DGCR2 / Fold change vs veh, DGCR2 / RFU, WDSUB1 / Fold change vs veh, WDSUB1 / Fold change vs veh, HSP90B1 /// MIR3652 / RFU, ADSS / Fold change vs veh, ADSS / RFU, GK / Fold change vs veh, GK / RFU, ZNF148 / Fold change vs veh, ZNF148 / RFU, TAF9 / Fold change vs veh, TAF9 / RFU, SLC1A5 / Fold change vs veh, SLC1A5 / RFU, SLMO2 / Fold change vs veh, SLMO2 / RFU, ABCC4 / Fold change vs veh, ABCC4 / RFU, LOC101060439 /// RAP1B / Fold change vs veh, LOC101060439 /// RAP1B / RFU, RFX7 / Fold change vs veh, RFX7 / RFU, GTPBP10 / Fold change vs veh, GTPBP10 / RFU, CNEP1R1 / Fold change vs veh, CNEP1R1 / RFU, BIVM-ERCC5 /// ERCC5 / Fold change vs veh, BIVM-ERCC5 /// ERCC5 / RFU, ILF3 / Fold change vs veh, ILF3 / RFU 11762660_at / Fold change /veh 11762660_at / RFU VCAN (11757783_s_at) / Fold change /veh VCAN (11757783_s_at) / RFU DDX43 (11728927_at) / Fold change /veh DDX43 (11728927_at) / RFU KRT8 (11758188_x_at) / Fold change /veh KRT8 (11758188_x_at) / RFU NKD1 (11759106_at) / Fold change /veh NKD1 (11759106_at) / RFU SRD5A1 (11742802_a_at) / Fold change /veh SRD5A1 (11742802_a_at) / RFU TPSAB1 /// TPSB2 (11721975_s_at) / Fold change /veh TPSAB1 /// TPSB2 (11721975_s_at) / RFU GSTM3 (11746129_a_at) / Fold change /veh GSTM3 (11746129_a_at) / RFU IL23R (11737362_x_at) / Fold change /veh IL23R (11737362_x_at) / RFU TMEM51 (11727254_a_at) / Fold change /veh TMEM51 (11727254_a_at) / RFU PIWIL2 (11732686_x_at) / Fold change /veh PIWIL2 (11732686_x_at) / RFU ORM1 (11744905_x_at) / Fold change /veh ORM1 (11744905_x_at) / RFU CCDC152 (11743942_at) / Fold change /veh CCDC152 (11743942_at) / RFU ECM1 (11717891_a_at) / Fold change /veh ECM1 (11717891_a_at) / RFU IL23R (11748794_a_at) / Fold change /veh IL23R (11748794_a_at) / RFU TNFAIP8L3 (11732012_x_at) / Fold change /veh TNFAIP8L3 (11732012_x_at) / RFU MBOAT4 (11741988_at) / Fold change /veh MBOAT4 (11741988_at) / RFU 11764193_at / Fold change /veh 11764193_at / RFU TMEM53 (11763286_at) / Fold change /veh TMEM53 (11763286_at) / RFU MAGEB2 (11727129_at) / Fold change /veh MAGEB2 (11727129_at) / RFU TMEM200A (11744735_a_at) / Fold change /veh TMEM200A (11744735_a_at) / RFU CCDC152 (11751479_a_at) / Fold change /veh CCDC152 (11751479_a_at) / RFU FAM211A (11726209_a_at) / Fold change /veh FAM211A (11726209_a_at) / RFU RGS16 (11746705_a_at) / Fold change /veh RGS16 (11746705_a_at) / RFU VCAN (11755009_s_at) / Fold change /veh VCAN (11755009_s_at) / RFU RHOB (11743442_s_at) / Fold change /veh RHOB (11743442_s_at) / RFU RGS16 (11720943_a_at) / Fold change /veh RGS16 (11720943_a_at) / RFU RGS16 (11720944_at) / Fold change /veh RGS16 (11720944_at) / RFU, VPS4B / Fold change vs veh, VPS4B / RFU, CREB1 / Fold change vs veh, CREB1 / RFU, DNAJC13 / Fold change vs veh, DNAJC13 / RFU, GNAQ / Fold change vs veh, GNAQ / RFU, CDK5R1 / Fold change vs veh, CDK5R1 / RFU, ZRANB3 / Fold change vs veh, ZRANB3 / RFU, CUL4A / Fold change vs veh, CUL4A / RFU, CCNY / Fold change vs veh, CCNY / RFU, UFL1 / Fold change vs veh, UFL1 / RFU, COG3 / Fold change vs veh, COG3 / RFU, DIAPH2 / Fold change vs veh, DIAPH2 / RFU, SKA2 / Fold change vs veh, SKA2 / RFU, AFF3 / Fold change vs veh, AFF3 / RFU, LMF1 / Fold change vs veh, LMF1 / RFU, IPO11 / Fold change vs veh, IPO11 / RFU, DFFB / Fold change vs veh, DFFB / RFU, FOXP1 / Fold change vs veh, FOXP1 / RFU, CARD8 / Fold change vs veh, CARD8 / RFU, STRN3 / Fold change vs veh, STRN3 / RFU, ADK / Fold change vs veh, ADK / RFU, RASSF2 / Fold change vs veh, RASSF2 / RFU, WIPF1 / Fold change vs veh, WIPF1 / RFU, LARP1B / Fold change vs veh, LARP1B / RFU, RASA1 / Fold change vs veh, RASA1 / RFU, RB1 / Fold change vs veh, RB1 / RFU, PPFIA1 / Fold change vs veh, PPFIA1 / RFU, MAT2A / Fold change vs veh, MAT2A / RFU, CCT5 / Fold change vs veh, CCT5 / RFU, WDR92 / Fold change vs veh, WDR92 / RFU, CUX1 / Fold change vs veh, CUX1 / RFU, TTC7A / Fold change vs veh, TTC7A / RFU, TMEM135 / Fold change vs veh, TMEM135 / RFU, DEPTOR / Fold change vs veh, DEPTOR / RFU, CPM / Fold change vs veh, CPM / RFU, DNAJB6 / Fold change vs veh, DNAJB6 / RFU, CACNA2D3 / Fold change vs veh, CACNA2D3 / RFU, DTX4 / Fold change vs veh, DTX4 / RFU, TFCP2 / Fold change vs veh, TFCP2 / RFU, GMCL1 /// GMCL1P1 / Fold change vs veh, GMCL1 /// GMCL1P1 / RFU, AEBP2 / Fold change vs veh, AEBP2 / RFU, SNHG1 /// SNORD22 /// SNORD25 /// SNORD26 /// SNORD27 /// SNORD28 /// SNORD29 /// SNORD31 / Fold change vs veh, SNHG1 /// SNORD22 /// SNORD25 /// SNORD26 /// SNORD27 /// SNORD28 /// SNORD29 /// SNORD31 / Fold change (Aza/veh), C12orf56 (ProbeSet 11735607_a_at) / Fold change (ACY-1035/veh), C12orf56 (ProbeSet 11735607_a_at) / Fold change (Aza/veh), FGFR1OP (ProbeSet 11751329_s_at) / Fold change (ACY-1035/veh), FGFR1OP (ProbeSet 11751329_s_at) / Fold change (Aza/veh), VPS36 (ProbeSet 11739960_a_at) / Fold change (ACY-1035/veh), VPS36 (ProbeSet 11739960_a_at) / RFU SYPL1 (11715823_x_at) / Fold change /veh SYPL1 (11715823_x_at) / RFU IGFBP7 (11715501_s_at) / Fold change /veh IGFBP7 (11715501_s_at) / RFU REEP3 (11722064_at) / Fold change /veh REEP3 (11722064_at) / RFU IGLL1 (11728026_x_at) / Fold change /veh IGLL1 (11728026_x_at): dose or concentration left out as unconfirmed
Conditions: MV-4-11 cells, 48 hours

Nc1ccc(-c2cccs2)cc1NC(=O)c1ccc2c(c1)cc(C1CC1)n2CCN1CCOCC1 [ACY-1035]
Fold change /veh CASKIN2 (11723855_a_at): 1.05
